The data set relates to subcutaneous prostate cancer model (PC3). The data set is described as follows: Tumour specific uptake of Evans Blue vs. Enhancement MI. It counts as in vivo, mice. The note with it: ACT, Enhancement 0.5 MHz MI 0.2, compared to MI=0 (no ultrasound); 30 min after treatment. Here is the method:
To investigate the effect of MI variance of the US Enhancement field, tumour specific uptake of Evans Blue (EB, fluorescent dye) has been investigated in a subcutaneous prostate cancer model (PC3) in mice. Five groups with Enhancement insonation MIs of 0, 0.1, 0.2, 0.3 and 0.4 were investigated (N=3 animals per group). […] 30 min after treatment, the tumours were excised and the amount of EB was measured by spectrophotometry at 620 nm.

For the compound `Cc1cc(-c2ccc(/N=N/c3ccc4c(S(=O)(=O)O)cc(S(=O)(=O)O)c(N)c4c3O)c(C)c2)ccc1/N=N/c1ccc2c(S(=O)(=O)O)cc(S(=O)(=O)O)c(N)c2c1O` [Evans Blue], the “increase in tumour specific uptake” value is reported as approximately 60%.

Values taken from patent US20240216549A1, “ENHANCEMENT OF TREATMENT WITH IMMUNOTHERAPEUTIC AGENTS” (ACT THERAPEUTICS LTD, priority 2021, published 2024).
